Patent US12162858B2, “Quinoline derivatives as inhibitors of AXL/MER RTK and CSF1R” (QURIENT CO., LTD., priority 2018, dated 2024)
Like-named read-outs stand apart in the source and are kept apart here.

Legend:
CSF1R (M-NFS-60 cells) = test: Cell Titer-Glo viability assay using M-NFS-60 cells; assay type: cell-based; conditions: Mus musculus, read-out: Cellular CSF1R activity by M-NFS-60 viability assay (IC50 activity range)
Experimental: M-NFS-60 cells were cultured in RPMI-1640 medium containing 10% FBS, 0.05 mM 2-Mercaptoethanol, penicillin (100 U/ml)/streptomycin ([…]) and supplemented with 62 ng/ml recombinant human M-CSF at 37° C./5% CO2. Aliquots of the cells were seeded into a 96-well plate (2×10^5 cells in 100 μl/well) and then incubated at 37° C./5% CO2 1 h. Dissolve compound in 100% DMSO to make 10 mM stock solutions (Aliquots stored in the Nitrogen Cabinet). Dilute 10 mM compounds solutions for 2-fold in 100% DMSO to get 5 mM solutions (10 μl+10 μl DMSO), and then make a 3-fold serial dilution (10 μl+20 μl DMSO) for 10 doses. For reference compounds: Dilute 10 mM compounds solutions for 20-fold in 100% DMSO to get 0.5 mM solutions (2 μl+38 μl DMSO), and then make a 3-fold serial dilution (10 μl+20 μl DMSO) for 8 doses. The 96-well plate was equilibrated at room temperature for 30 min. 50 μl of CellTiter-Glo® Reagent added to each well and mixed for 2 min on an orbital shaker to induce cell lysis. The 96-well plate was incubated at room temperature for 10 min to stabilize luminescent signal. Luminescent was measured […] by EnVison plate reader. Calculations and Formulas: The following calculations and formulas are used for data analysis using XL Fit software: The curve fitting was made using the Sigmoidal Dose-Response Model (Fit model, 205).

Axl = molecular target: T1, Axl (Homo sapiens, UniProt P30530); test: Cellular Axl inhibition ELISA (p-Axl, Gas6-induced) using H1299 cells; assay type: cell-based; set-up: especially H1299 cell endogenously expresses Axl; endogenous in cells; host or cells: H1299
T1 sequence (P30530 26-894): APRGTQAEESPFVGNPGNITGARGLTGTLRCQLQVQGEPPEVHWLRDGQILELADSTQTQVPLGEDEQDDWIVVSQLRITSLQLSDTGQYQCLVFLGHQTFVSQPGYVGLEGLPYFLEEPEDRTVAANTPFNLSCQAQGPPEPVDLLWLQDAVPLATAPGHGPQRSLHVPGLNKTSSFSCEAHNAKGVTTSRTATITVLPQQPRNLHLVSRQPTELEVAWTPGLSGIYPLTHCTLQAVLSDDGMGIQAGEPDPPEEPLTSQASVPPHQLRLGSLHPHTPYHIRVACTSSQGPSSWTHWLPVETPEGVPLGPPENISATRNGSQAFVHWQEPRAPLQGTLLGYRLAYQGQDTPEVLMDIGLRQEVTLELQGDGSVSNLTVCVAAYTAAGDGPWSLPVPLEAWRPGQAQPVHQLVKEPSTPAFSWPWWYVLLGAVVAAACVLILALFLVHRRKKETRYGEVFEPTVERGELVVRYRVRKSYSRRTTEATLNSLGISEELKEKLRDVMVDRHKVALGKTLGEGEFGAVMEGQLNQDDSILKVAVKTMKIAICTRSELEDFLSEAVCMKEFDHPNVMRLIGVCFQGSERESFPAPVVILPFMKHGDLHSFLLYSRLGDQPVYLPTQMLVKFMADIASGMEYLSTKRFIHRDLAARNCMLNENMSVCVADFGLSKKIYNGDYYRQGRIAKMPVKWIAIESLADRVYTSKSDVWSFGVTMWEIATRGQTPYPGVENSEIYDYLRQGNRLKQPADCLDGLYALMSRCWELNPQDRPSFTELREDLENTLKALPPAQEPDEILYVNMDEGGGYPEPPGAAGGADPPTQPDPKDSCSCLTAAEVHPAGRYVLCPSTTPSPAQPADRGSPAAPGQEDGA
Experimental: Axl is expressed in several of malignant cancer cells; especially H1299 cell endogenously expresses Axl; and an increased phosphorylation of Axl (p-Axl) can be observed, when induced by the Axl ligand, Ga6.
The H1299 cells should be 40-80% confluent in the cell culture flask. Then cells are washed with DPBS and trypsinized. After centrifugation, the cell pellet is re-suspended with pre-warmed culture medium (RPMI1640, 10% FBS) and cells are separated by pipetting 6 times up and down with a 10 ml serological pipette. The cell suspension was diluted to a final concentration of 1.25×10^5 cells/ml. Then 80 μl/well cell suspension is added to the plate. Cell-plates are incubated at 37° C./5% CO2 overnight. Compounds were dissolved by DMSO to 10 mM, and kept in nitrogen cabinet. Prepare the compounds stock plate, the reference compounds concentration starts at 0.50 mM (5 μl+95 μl DMSO), and the tested compounds start at 1.5 mM (6 μl+34 μl DMSO); Then make a 3-fold dilution series (10 doses) compounds. Then dilute compounds by the medium in the mid plate (2 μl compounds+198 μl medium). Transfer 20 μl diluted compounds from mid plate to the cell coated plate. Cell-plates are incubated at 37° C./5% CO2 for 24 h. Add 25 μl of Human Gas6 (1000 ng/ml) to 96-well plate; the final concentration of Human Gas6 is 200 ng/ml. Incubate the plates at 37° C./5% CO2 for 1 h. Remove medium and wash cells once with 300 ul/well ice-cold 1×PBS. Then remove PBS and add 100 μl/well ice-cold 1× Cell Lysis Buffer to 96-well plate. The plate is shaken for 40 min at 4° C. Then plates can be stored at −20° C. After the micro-wells strips have reached room temperature, break off the required number of micro-wells. Place the micro-wells in the strip holder. Unused micro-wells must be resealed and stored at 4° C. immediately. Add 60 μl of cell lysate to the appropriate well. Seal with tape and press firmly onto top of micro-wells. Incubate the plate at 37° C. for 2 h. Gently remove the tape and wash wells 5 times with 1× Wash Buffer, 300 μl each time for each well. Add 100 μl of reconstituted Detection Antibody (green color) to each well. Seal with tape and incubate the plate at 37° C. for 1 h. Repeat wash procedure. Add 100 μl of reconstituted HRP Linked secondary antibody to each well. Seal with tape and incubate the plate at 37° C. for 30 min. Repeat wash procedure. Add 100 μl of TMB Substrate to each well. Seal with tape and incubate the plate at 37° C. for 15 min. Add 100 μl of STOP Solution to each well. Shake gently for a few seconds. Read absorbance at 450 nm within 30 min after adding STOP Solution. Calculations and Formulas: The following calculations and formulas are used for data analysis using XL Fit software: The curve fitting was made using the Sigmoidal Dose-Response Model (Fit model, 205).

[1] = read-out: Cellular Axl activity by H1299 Elisa (IC50)
[2] = Elisa, comparison of compounds of present invention (**) vs compounds of WO2016/166250 (*), read-out: Cellular activity Axl (H1299) (IC50)

Row | SMILES | IC50 (Axl; [1]) [µM] | IC50 (Axl; [2]) [µM] | IC50 (CSF1R (M-NFS-60 cells)) [µM]
1 | COc1cc2nccc(Oc3ccc(NC(=O)c4nn(C5CCN(C)C5)cc4OCC(F)(F)F)cc3F)c2cc1OC (stereo not drawn) [Compound 96] | < 0.5 | – | 1 to 10
2 | COc1cc2nccc(Oc3ccc(NC(=O)c4nn(C5CC5)cc4NCC(F)(F)F)nn3)c2cc1OC [Compound 148] | < 0.5 | – | 1 to 10
3 | COc1cc2nccc(Oc3ccc(NC(=O)c4nn(CC(C)C)cc4OCC(F)(F)F)nn3)c2cc1OC [Compound 124] | < 0.5 | – | 1 to 10
4 | COc1cc2nccc(Oc3ccc(NC(=O)c4nn(C5CCN(C)C5)cc4OCC(F)(F)F)cc3)c2cc1OC (stereo not drawn) [Compound 100] | 0.5 to 1 | – | 1 to 10
5 | COc1cc2nccc(Oc3ccc(NC(=O)c4nn(C5CC5)cc4OCC4COC4)nn3)c2cc1OC [Compound 161] | < 0.5 | – | 1 to 10
6 | COc1cc2nccc(Oc3ccc(NC(=O)c4nn(C5CC5)cc4OCC4CCC4)nn3)c2cc1OC [Compound 149] | < 0.5 | – | 1 to 10
7 | COc1cc2nccc(Oc3ccc(NC(=O)c4nn(C5CCCC5)cc4OCC(F)(F)F)cn3)c2cc1OC [Compound 131] | < 0.5 | – | 1 to 10
8 | CCn1cc(OCC(F)(F)F)c(C(=O)Nc2ccc(Oc3ccnc4cc(OC)c(OC)cc34)cn2)n1 [Compound 4] | < 0.5 | 0.0034 | < 1
9 | COc1cc2nccc(Oc3ccc(NC(=O)c4nn(C5CC5)cc4OCC(F)F)nn3)c2cc1OC [Compound 162] | < 0.5 | – | 1 to 10
10 | CNCCn1cc(OCC(F)(F)F)c(C(=O)Nc2ccc(Oc3ccnc4cc(OC)c(OC)cc34)c(F)c2)n1 [Compound 155] | < 0.5 | – | 1 to 10
11 | COc1cc2nccc(Oc3ccc(NC(=O)c4nn(CC5COC5)cc4OCC(F)(F)F)nn3)c2cc1OC [Compound 123] | < 0.5 | – | 1 to 10
12 | COc1cc2nccc(Oc3ccc(NC(=O)c4nn(C5CCNC5)cc4OCC(F)(F)F)nn3)c2cc1OC (stereo not drawn) [Compound 122] | ≥ 1 | – | 1 to 10
13 | COc1cc2nccc(Oc3ccc(NC(=O)c4nn(CCOC5CC5)cc4OCC(F)(F)F)cc3C)c2cc1OC [Compound 117] | 0.5 to 1 | – | < 1
14 | CNCCn1cc(OCC(F)(F)F)c(C(=O)Nc2ccc(Oc3ccnc4cc(OC)c(OC)cc34)c(C)c2)n1 [Compound 156] | ≥ 1 | – | 1 to 10

Further lines, with some results ahead:

Row | IC50 (Axl; [1]) [µM] | IC50 (Axl; [2]) [µM] | SMILES | IC50 (CSF1R (M-NFS-60 cells)) [µM]
15 | < 0.5 | – | COc1cc2nccc(Oc3ccc(NC(=O)c4nn(C5CC5)cc4OCC4CCC4)nc3)c2cc1OC [Compound 111] | 1 to 10
16 | < 0.5 | 0.0052 | COCCn1cc(OCC(F)(F)F)c(C(=O)Nc2ccc(Oc3ccnc4cc(OC)c(OC)cc34)cn2)n1 [Compound 10] | < 1
17 | 0.5 to 1 | – | COc1cc2nccc(Oc3ccc(NC(=O)c4nn(CC(C)O)cc4OCCF)nc3)c2cc1OC (stereo not drawn) [Compound 152] | < 1
18 | < 0.5 | 0.0039 | COc1cc2nccc(Oc3ccc(NC(=O)c4nn(CC5COC5)cc4OCC(F)(F)F)nc3)c2cc1OC [Compound 92] | < 1
19 | ≥ 1 | – | CNCCOc1cn(C2CC2)nc1C(=O)Nc1ccc(Oc2ccnc3cc(OC)c(OC)cc23)nn1 [Compound 160] | ≥ 10
20 | < 0.5 | – | CCCn1cc(OCCN(C)C)c(C(=O)Nc2ccc(Oc3ccnc4cc(OC)c(OC)cc34)c(F)c2)n1 [Compound 165] | 1 to 10
21 | < 0.5 | – | COc1cc2nccc(Oc3ccc(NC(=O)c4nn(CC(C)O)cc4OC(C)C)nc3)c2cc1OC (stereo not drawn) [Compound 151] | < 1
22 | < 0.5 | – | COCCOc1cn(C2CC2)nc1C(=O)Nc1ccc(Oc2ccnc3cc(OC)c(OC)cc23)cn1 [Compound 107] | 1 to 10
23 | < 0.5 | – | COc1cc2nccc(Oc3ccc(NC(=O)c4nn(C5CC5)cc4OC(C)C)nc3)c2cc1OC [Compound 108] | < 1
24 | < 0.5 | – | CCCn1cc(OCCOC)c(C(=O)Nc2ccc(Oc3ccnc4cc(OC)c(OC)cc34)cn2)n1 [Compound 105] | < 1
25 | < 0.5 | – | CCCn1cc(NCCC(F)(F)F)c(C(=O)Nc2ccc(Oc3ccnc4cc(OC)c(OC)cc34)cn2)n1 [Compound 158] | 1 to 10
26 | < 0.5 | – | CCCn1cc(OCC(F)F)c(C(=O)Nc2ccc(Oc3ccnc4cc(OC)c(OC)cc34)cn2)n1 [Compound 12] | < 1
27 | ≥ 1 | – | CCCn1cc(OCC2CNC2)c(C(=O)Nc2ccc(Oc3ccnc4cc(OC)c(OC)cc34)cn2)n1 [Compound 159] | ≥ 10
28 | < 0.5 | – | CCCn1cc(OCC(F)(F)F)c(C(=O)Nc2ccc(Oc3ccnc4cc(OC)c(OC)cc34)nc2)n1 [Compound 139] | 1 to 10
29 | ≥ 1 | – | COc1cc2nccc(Oc3ccc(NC(=O)c4nn(CCN)cc4OCC(F)(F)F)nn3)c2cc1OC [Compound 125] | ≥ 10
30 | < 0.5 | – | COc1cc2nccc(Oc3ccc(NC(=O)c4nn(C5CC5)cc4NCCC(F)(F)F)nc3)c2cc1OC [Compound 142] | 1 to 10
31 | < 0.5 | – | COc1cc2nccc(Oc3ccc(NC(=O)c4nn(CCOC5CC5)cc4OCC(F)(F)F)cc3)c2cc1OC [Compound 118] | 1 to 10
32 | ≥ 1 | – | COc1cc2nccc(Oc3ccc(NC(=O)c4nn(CCO)cc4OCC(F)(F)F)cn3)c2cc1OC [Compound 129] | ≥ 10
33 | < 0.5 | – | COc1cc2nccc(Oc3ccc(NC(=O)c4nn(C5CC5)cc4OCCF)nc3)c2cc1OC [Compound 110] | < 1
